US9005670B2, “Use of histone acetyltransferase inhibitors as novel anti-cancer therapies” (The Johns Hopkins University, priority 2010, dated 2015)

Tests used:
[1] = tested on: cyclin A in melanoma cells; test: cyclin A protein expression, Western blot; format: cell-based; conditions: 10-20 μM C646
Excerpt: FIGS. 19A and 19B show the effects of p300/CBP HAT inhibition on cyclin A protein expression in melanoma cells.
Cyclin A is involved in two cell cycle checkpoints. Cyclin A associates with cdk2 to promote S phase progression, and then it associates with cdc2 during the G2 phase.

[2] = tested on: melanoma cell lines from varying stages of progression; test: 3H-thymidine incorporation, melanoma lines of varying stages; format: cell-based; conditions: 24 hours
Experimental: Proliferation was measured via ^3H-thymidine incorporation.

[3] = tested on: U87 glioblastoma cells; test: AlamarBlue growth inhibition, U87; format: cell-based; conditions: U87, 72 hours
Experimental: (§1) Dose response curves were generated using the AlamarBlue® assay (Invitrogen, Carlsbad, Calif.).
(§2) When inhibition was assessed using the AlamarBlue® assay (Invitrogen, Carlsbad, Calif.), cells were initially seeded at 500 cells per well in a 96-well plate. AlamarBlue® is a non-toxic reagent that measures cellular metabolic activity. Its main ingredient is resazurin, a non-fluorescent indicator dye that is reduced to bright red-fluorescent resorufin in metabolically active cells. AlamarBlue® was added to growth medium at 1/10 of the total volume (e.g., 20 μl in 200 μl total volume). […] Fluorescence reading was taken from the same plate every day for 5 days to ensure that the saturation point was not reached. Fluorescence intensity is proportional to the number of live cells in the plate.

[4] = tested on: D54 glioblastoma cells; test: AlamarBlue growth inhibition, D54; format: cell-based; conditions: D54, 72 hours
Experimental: as §1, §2

[5] = molecular target: PCAF (p300/CBP-associated factor) (Homo sapiens, UniProt Q92831); test: PCAF coupled spectrophotometric assay; format: biochemical; conditions: 10 μM compound; read-out: Percent inhibition of acetyltransferase, PCAF
PCAF (p300/CBP-associated factor), sequence (Q92831 493-658 limits assumed, species assumed): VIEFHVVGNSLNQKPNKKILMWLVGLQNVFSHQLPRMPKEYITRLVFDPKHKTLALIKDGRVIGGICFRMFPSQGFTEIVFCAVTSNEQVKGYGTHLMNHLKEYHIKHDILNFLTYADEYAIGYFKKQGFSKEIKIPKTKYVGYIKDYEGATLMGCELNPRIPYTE

IC50 [3]: 15.1 µM
IC50 [4]: 9.3 µM
inhibition at 10 µM [5]: < 10%
SMILES: CC1=NN(c2ccc(C(=O)O)cc2)C(=O)C1=Cc1ccc(-c2cc(C)c(C)cc2[N+](=O)[O-])o1 [Compound C646, 4-(4,5-dihydro-3-methyl-4-((5-(4,5-dimethyl-2-nitrophenyl)furan-2-yl)methylene)-5-oxopyrazol-1-yl)benzoic acid]
cyclin A protein level [1]: decreases after C646 treatment in a dose-dependent fashion
3H-thymidine incorporation [2]: reduced ^3H-thymidine incorporation
